≈ marks a conversion by molar mass, not a printed value. Where a SMILES comes first, the peptide text is derived from it. Bridges are numbered along the chain shown (N, C = ends). The star is where a group is joined. Decanoyl = CCCCCCCCCC(=O)*
Columns and labels:
[1] = test system: C. albicans (Ca, ATCC 10231); experiment: microbe, parasite or virus in culture; type: cell-based, Candida albicans; details: ATCC 10231, 48 h
Summary of the method: (§1)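 Overnight cultures in potato dextrose broth with 2% glucose at 25–30 °C were diluted to approx. 4 × 10^5 spores/mL and mixed 1:1 with two-fold peptide dilutions plated at 256 to 1 µg/mL. After 48 h at room temperature, OD600 was read. MIC was the lowest concentration giving OD below 10% of the growth control, in triplicate.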

[2] = test system: P. aeruginosa (Pa, ATCC 27853); experiment: microbe, parasite or virus in culture; type: cell-based, Pseudomonas aeruginosa; details: ATCC 27853, 24 h
Summary of the method: (§2)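 Cultures grown in Mueller–Hinton broth were adjusted by OD600 to 2.5–3 × 10^4 CFU/mL and mixed with two-fold peptide dilutions from 256 to 1 µg/mL. Plates were incubated at 35 °C with OD595 monitored every hour for 24 h.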

[3] = test system: E. coli MC4100 (wild type, WT); experiment: microbe, parasite or virus in culture; details: wild type
Summary of the method: (§3)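 Broth microdilution in Mueller–Hinton medium, 2.5–3 × 10^4 CFU/mL inoculum, two-fold peptide dilutions from 256 to 1 µg/mL, 35 °C with OD595 read hourly for 24 h. MIC is the lowest concentration giving OD below 10% of the untreated growth control; run in triplicate.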

[4] = test system: E. coli NR698 (outer membrane permeable mutant, imp4213); experiment: microbe, parasite or virus in culture; details: MC4100 NR698 imp4213, deficient outer membrane
Summary of the method: as §3

[5] = test system: C. glutamicum (Cg, ATCC 13032); experiment: microbe, parasite or virus in culture; type: cell-based, Corynebacterium glutamicum; details: ATCC 13032, 24 h
Summary of the method: as §2

[6] = test system: human red blood cells (RBC); experiment: Haemolytic activity assay; type: cell-based; details: for Selectivity index (SI) G- / Selectivity index (SI) G+ / Selectivity index (SI) Fungi: Table S3, highest tested concentration used where EC50 above it; for Selectivity index (SI) G-: EC50/GM of Gram-negative strains; for Selectivity index (SI) G+: EC50/GM of Gram-positive strains; for SI (selectivity index = EC50/GM): haemolytic EC50 over GM of MIC against all bacterial strains, Table 1; for RBC Tox. (EC50), haemolytic activity: human RBC, 1 h, 37 °C, concentration giving 50% haemolysis; for Selectivity index (SI) Fungi: EC50/GM of fungi
Summary of the method: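 Washed human erythrocytes (1% hematocrit final) incubated 1 h at 37 °C with agitation with lipopeptides at 500–3.9 μM in PBS (≤1% DMSO), duplicates. Haemoglobin release read at 545 nm relative to 0.1% Triton X-100; EC50 is 50% haemolysis, averaged from three experiments.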

[7] = test system: Gram-negative bacterial strains (E. coli and P. aeruginosa); experiment: Antibacterial MIC assay, Gram-negative strains together (range or geometric mean); type: cell-based; details: Table S3; MIC >256 set to 256
Summary of the method: as §2

[8] = test system: B. subtilis (Bs, ATCC 23857); experiment: microbe, parasite or virus in culture; type: cell-based, Bacillus subtilis; details: ATCC 23857, 24 h
Summary of the method: as §2

[9] = test system: fungi (A. pullulans, C. albicans, Rhodotorula sp.); experiment: Antifungal MIC assay, all fungi together (range or geometric mean); type: cell-based; details: Table S3; MIC >128 set to 128
Summary of the method: as §1

[10] = test system: Gram-positive bacterial strains; details: for GM of MIC G+: Table S3, MIC >256 set to 256
Summary of the method: as §2

A. pullulans (Ap) = experiment: microbe, parasite or virus in culture; type: cell-based, Aurobasidium pollulans; details: 48 h
Summary of the method: as §1

E. coli (Ec, ATCC 25922) = experiment: microbe, parasite or virus in culture; type: cell-based, Escherichia coli; details: ATCC 25922, 24 h
Summary of the method: as §2

[11] = test system: S. epidermidis RP62A (Se, ATCC 35984); experiment: microbe, parasite or virus in culture; type: cell-based, Staphylococcus epidermidis; details: ATCC 35984, 24 h
Summary of the method: as §2

all bacterial strains = experiment: Antibacterial MIC assay, all bacterial strains together (range or geometric mean); type: cell-based; details: for GM (geometric mean of the MIC values against all bacterial strains): Table 1, six bacterial strains; for GM of MIC Tot. bact.: Table S3, all bacterial test strains, MIC >256 set to 256
Summary of the method: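 Broth microdilution in Mueller–Hinton broth against B. subtilis, C. glutamicum, S. aureus, S. epidermidis RP62A, E. coli and P. aeruginosa; inoculum 2.5–3 × 10^4 CFU/mL, 35 °C, OD595 read hourly for 24 h. MIC: lowest peptide concentration giving OD below 10% of growth control; geometric mean across strains, triplicate.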

[12] = test system: S. aureus (Sa, ATCC 9144); experiment: microbe, parasite or virus in culture; type: cell-based, Staphylococcus aureus; details: ATCC 9144, 24 h
Summary of the method: as §2

Rhodotorula sp. (Rh) = experiment: microbe, parasite or virus in culture; type: cell-based; details: 48 h
Summary of the method: as §1

CCCCCCCCCC(=O)N[C@H]1CSSC[C@@H](C(=O)N[C@@H](CCCNC(=N)N)C(=O)N[C@@H](CC(C)C)C(N)=O)NC(=O)[C@H](CCCNC(=N)N)NC(=O)[C@H](Cc2c[nH]c3ccccc23)NC(=O)[C@H](Cc2c[nH]c3ccccc23)NC(=O)CNC(=O)[C@H](Cc2c[nH]c3ccccc23)NC(=O)[C@H](CCCNC(=N)N)NC(=O)[C@H](CCCNC(=N)N)NC(=O)CNC1=O [Peptide C10-cTurg-6, C10- (CGRRWGWWRC)RL-NH2] (Decanoyl-CGRRWGWWRCRL-NH2; disulfide 1-10)
Antimicrobial Activity (MIC) Fungi Ca [1]: 64 µg/mL
Antimicrobial Activity (MIC) Gram − Pa [2]: 16 µg/mL
MIC E. coli MC4100 (WT) [3]: 8 µg/mL (≈ 4.48 µM)
MIC E. coli NR698 (mutant) [4]: 8 µg/mL (≈ 4.48 µM)
Antimicrobial Activity (MIC) Gram + Cg [5]: 4 µg/mL
Selectivity index (SI) G- [6]: 1
Selectivity index (SI) G+ [6]: 3
SI (selectivity index = EC50/GM) [6]: 2
RBC Tox. (EC50), haemolytic activity [6]: 16 µg/mL
GM of MIC G- [7]: 16 µg/mL
Antimicrobial Activity (MIC) Gram + Bs [8]: 4 µg/mL
GM of MIC Fungi [9]: 51 µg/mL
GM of MIC G+ [10]: 6 µg/mL
Antimicrobial Activity (MIC) Fungi Ap (A. pullulans (Ap)): 64 µg/mL
Antimicrobial Activity (MIC) Gram − Ec (E. coli (Ec, ATCC 25922)): 16 µg/mL
Antimicrobial Activity (MIC) Gram + Se [11]: 8 µg/mL
GM (geometric mean of the MIC values against all bacterial strains) (all bacterial strains): 8 µg/mL
GM of MIC Tot. bact. (all bacterial strains): 8 µg/mL
Antimicrobial Activity (MIC) Gram + Sa [12]: 8 µg/mL
Antimicrobial Activity (MIC) Fungi Rh (Rhodotorula sp. (Rh)): 32 µg/mL

CCCCCCCCCC(=O)N[C@H]1CSSC[C@@H](C(=O)N[C@@H](CCCCN)C(=O)N[C@@H](CC(C)C)C(N)=O)NC(=O)[C@H](CCCCN)NC(=O)[C@H](Cc2c[nH]c3ccccc23)NC(=O)CNC(=O)[C@H](Cc2c[nH]c3ccccc23)NC(=O)[C@H](Cc2c[nH]c3ccccc23)NC(=O)[C@H](CCCCN)NC(=O)[C@H](CCCCN)NC(=O)CNC1=O [Peptide C10-cTurg-2, C10- (CGKKWWGWKC)KL-NH2] (Decanoyl-CGKKWWGWKCKL-NH2; disulfide 1-10)
Antimicrobial Activity (MIC) Fungi Ca [1]: 64 µg/mL
Antimicrobial Activity (MIC) Gram − Pa [2]: 8 µg/mL
MIC E. coli MC4100 (WT) [3]: 8 µg/mL (≈ 4.78 µM)
MIC E. coli NR698 (mutant) [4]: 4 µg/mL (≈ 2.39 µM)
Antimicrobial Activity (MIC) Gram + Cg [5]: 4 µg/mL
Selectivity index (SI) G- [6]: 13
Selectivity index (SI) G+ [6]: 32
Selectivity index (SI) Fungi [6]: 3
SI (selectivity index = EC50/GM) [6]: 24
RBC Tox. (EC50), haemolytic activity [6]: 106 µg/mL
GM of MIC G- [7]: 8 µg/mL
Antimicrobial Activity (MIC) Gram + Bs [8]: 2 µg/mL
GM of MIC Fungi [9]: 32 µg/mL
GM of MIC G+ [10]: 3 µg/mL
Antimicrobial Activity (MIC) Fungi Ap (A. pullulans (Ap)): 32 µg/mL
Antimicrobial Activity (MIC) Gram − Ec (E. coli (Ec, ATCC 25922)): 8 µg/mL
Antimicrobial Activity (MIC) Gram + Se [11]: 4 µg/mL
GM (geometric mean of the MIC values against all bacterial strains) (all bacterial strains): 5 µg/mL
GM of MIC Tot. bact. (all bacterial strains): 5 µg/mL
Antimicrobial Activity (MIC) Gram + Sa [12]: 4 µg/mL
Antimicrobial Activity (MIC) Fungi Rh (Rhodotorula sp. (Rh)): 16 µg/mL

CCCCCCCCCC(=O)N[C@H]1CSSC[C@@H](C(=O)N[C@@H](CCCCN)C(=O)N[C@@H](CC(C)C)C(N)=O)NC(=O)[C@H](CCCCN)NC(=O)[C@H](Cc2c[nH]c3ccccc23)NC(=O)CNC(=O)CNC(=O)[C@@H]2CCCN2C(=O)[C@H](CCCCN)NC(=O)[C@H](CCCCN)NC(=O)CNC1=O [Peptide C10-cTurg-1, C10 -(CGKKPGGWKC)KL-NH2] (Decanoyl-CGKKPGGWKCKL-NH2; disulfide 1-10)
Antimicrobial Activity (MIC) Fungi Ca [1]: 64 µg/mL
Antimicrobial Activity (MIC) Gram − Pa [2]: 32 µg/mL
MIC E. coli MC4100 (WT) [3]: 8 µg/mL (≈ 5.49 µM)
MIC E. coli NR698 (mutant) [4]: 4 µg/mL (≈ 2.75 µM)
Antimicrobial Activity (MIC) Gram + Cg [5]: 2 µg/mL
Selectivity index (SI) G- [6]: > 60
Selectivity index (SI) G+ [6]: > 239
Selectivity index (SI) Fungi [6]: > 47
RBC Tox. (EC50), haemolytic activity [6]: >956 µg/mL
GM of MIC G- [7]: 16 µg/mL
Antimicrobial Activity (MIC) Gram + Bs [8]: 2 µg/mL
GM of MIC Fungi [9]: 20 µg/mL
GM of MIC G+ [10]: 4 µg/mL
Antimicrobial Activity (MIC) Fungi Ap (A. pullulans (Ap)): 32 µg/mL
Antimicrobial Activity (MIC) Gram − Ec (E. coli (Ec, ATCC 25922)): 8 µg/mL
Antimicrobial Activity (MIC) Gram + Se [11]: 4 µg/mL
GM (geometric mean of the MIC values against all bacterial strains) (all bacterial strains): 6 µg/mL
GM of MIC Tot. bact. (all bacterial strains): 6 µg/mL
Antimicrobial Activity (MIC) Gram + Sa [12]: 16 µg/mL
Antimicrobial Activity (MIC) Fungi Rh (Rhodotorula sp. (Rh)): 4 µg/mL

CC(C)C[C@H](NC(=O)[C@H](CCCNC(=N)N)NC(=O)[C@@H]1CSSC[C@H](N)C(=O)NCC(=O)N[C@@H](CCCNC(=N)N)C(=O)N[C@@H](CCCNC(=N)N)C(=O)N[C@@H](Cc2c[nH]c3ccccc23)C(=O)NCC(=O)N[C@@H](Cc2c[nH]c3ccccc23)C(=O)N[C@@H](Cc2c[nH]c3ccccc23)C(=O)N[C@@H](CCCNC(=N)N)C(=O)N1)C(N)=O [cTurg-6] (H-CGRRWGWWRCRL-NH2; disulfide 1-10; N-terminus assumed)
Antimicrobial Activity (MIC) Fungi Ca [1]: 32 µg/mL
Antimicrobial Activity (MIC) Gram − Pa [2]: 16 µg/mL
MIC E. coli MC4100 (WT) [3]: 8 µg/mL (≈ 4.9 µM)
MIC E. coli NR698 (mutant) [4]: 8 µg/mL (≈ 4.9 µM)
Antimicrobial Activity (MIC) Gram + Cg [5]: 4 µg/mL
Selectivity index (SI) G- [6]: > 97
Selectivity index (SI) G+ [6]: > 164
Selectivity index (SI) Fungi [6]: > 34
RBC Tox. (EC50), haemolytic activity [6]: > 1045 µg/mL
GM of MIC G- [7]: 11 µg/mL
Antimicrobial Activity (MIC) Gram + Bs [8]: 4 µg/mL
GM of MIC Fungi [9]: 32 µg/mL
MIC against the Gram-positive bacterial strains ([10]; 2 h): 4 to 16 µg/mL
GM of MIC G+ [10]: 7 µg/mL
Antimicrobial Activity (MIC) Fungi Ap (A. pullulans (Ap)): 32 µg/mL
Antimicrobial Activity (MIC) Gram − Ec (E. coli (Ec, ATCC 25922)): 8 µg/mL
Antimicrobial Activity (MIC) Gram + Se [11]: 8 µg/mL
GM (geometric mean of the MIC values against all bacterial strains) (all bacterial strains): 8 µg/mL
GM of MIC Tot. bact. (all bacterial strains): 8 µg/mL
Antimicrobial Activity (MIC) Gram + Sa [12]: 16 µg/mL
Antimicrobial Activity (MIC) Fungi Rh (Rhodotorula sp. (Rh)): 32 µg/mL

— paper PMC9696794, “Synthesis and Antimicrobial Activity of Short Analogues of the Marine Antimicrobial Peptide Turgencin A: Effects of SAR Optimizations, Cys-Cys Cyclization and Lipopeptide Modifications” (International Journal of Molecular Sciences, 2022)
